# According to patent US20220395500A1, “SMALL MOLECULE ACTIVATORS OF INTERFERON REGULATORY FACTOR 3 AND METHODS OF USE THEREOF” (Neuralexo, Inc., priority 2020, published 2022):
# How the values were obtained:
# [1] = system: IRF3 activating pathway (TRIF, IPS1, STING) in THF cell lines; test: Interferon dependent luciferase reporter in telomerized human fibroblasts (THF) lacking adapter molecules; assay type: cell-based; conditions: WT THF, IPS1 KO, 23 μM compound or 313 ng/ml LPS
# Procedure: Shown is fold-change of an interferon dependent luciferase reporter expressed in various telomerized human fibroblasts (THF) cell lines lacking key adapter molecules in the IRF3 activating pathway (WT THF, IPS1 KO, STING KO, and TRIF KO) in response to different treatments (untreated, Sendai 1/100, 313 ng/ml LPS, 23 μM NA-42). Shown are group means+/−SEM.
# Select chemical entities corresponding to the NA and ND chemofamilies were examined as to their TRIF-dependency of IRF3 induction. TRIF, or TIR-domain-containing adapter-inducing interferon-β, is an adapter in responding to activation of toll-like receptors (TLRs). For reference, FIG. 26A illustrates a cell-signalling pathway including TRIF, along with TLR4, TLR3, IPS1, STING and IRF3. […] The treatment with Sendai 1/100 serves as an IPS1-dependent control, and the treatment with 313 ng/ml LPS serves as a TRIF-dependent control. As shown at FIG. 26B, treatment with 313 ng/ml LPS induces robust IRF3 induction in WT THF, IPS1 KO, and STING KO, but not in the TRIF KO, showing that LPS induction is TRIF-dependent. […] Assessment of fold change IRF3 was determined via measurement of the interferon dependent luciferase reporter.
# [2] = system: cytokines in mBMDMs (wild-type and IRF3 KO); test: Cytokine induction in mBMDMs (20-plex ProcartaPlex, Luminex); assay type: cell-based, mouse; conditions: for cytokine induction in mBMDMs (IL6, MCP3, Rantes, TNFa, MCP1, Mip1b, Mip1a, Gro-alpha) vs vehicle: wild-type and IRF3 KO mBMDMs
# Procedure: (§1) Cytokine induction is shown for both wild-type mouse mBMDMs and IRF3 KO mouse mBMDMs. Cytokine expression was measured using a cytokine 20-plex mouse ProcartaPlex kit (Invitrogen, Carlsbad, Calif.) for labeling of multiple cytokines within an individual sample and run on a Luminex (Austin, Tex.) 200 instrument. Data is expressed as pg/ml. Shown are group means+/−SEM; […], **p<0.01, ***p<0.001, ****p<0.0001.
# as §1, with “(Invitrogen)” for “(Invitrogen, Carlsbad, Calif.)”, “Luminex” for “Luminex (Austin, Tex.)”
# as §1, with “expression” for “expression was”, “(Invitrogen)” for “(Invitrogen, Carlsbad, Calif.)”, “Luminex” for “Luminex (Austin, Tex.)”
# Cytokine expression at each of FIGS. 22A-23B was monitored using a cytokine 20-plex mouse ProcartaPlex kit (Invitrogen, Carlsbad, Calif.) for labeling of multiple cytokines within an individual sample and run on a Luminex 200 instrument, and is expressed at FIGS. 22A-23B as pg/ml.
# [3] = system: Chikungunya Virus (CHIKV); test: Adjuvant effect on anti-CHIKV total IgG titers (CHIKV VLP prime/boost); assay type: in vivo, mouse; conditions: C57BL/6 mice, IM prime and boost, 3 weeks post-boost
# Procedure: Conditions shown include virus-like particle (VLP) alone, VLP+5 mg/kg ND13, VLP+10 mg/kg ND13, VLP+5 mg/kg NA-42, and VLP+10 mg/kg NA-42. Depicted is Log 10 antibody titer representing anti-CHIKV Total IgG. Individual samples are depicted as filled circles for each condition. Bar graphs represent average geometric mean titers for each treatment cohort+standard deviation.
# Select chemical entities corresponding to the NA and ND chemofamilies were examined as to their ability to act as adjuvants to enhance vaccine platforms. FIG. 28 depicts a representative example showing how NA-42 and ND-13 can enhance antibody titers to a Chikungunya Virus (CHIKV) challenge. C57BL/6 mice were primed and boosted IM with 10^6 PFU equivalents of CHIKVLP alone or in the presence of ND13 or NA42; 3 weeks post-boost mice were euthanized and total IgG reactive with CHIKV was measured by ELISA in duplicate. Data presented are average geometric mean titers for each treatment cohort including each animal. Specifically, FIG. 28 depicts various conditions (virus-like particle (VLP), VLP+5 mg/kg ND13, VLP+10 mg/kg ND13, VLP+5 mg/kg NA-42, and VLP+10 mg/kg NA-42) plotted against Log 10 antibody titer representing Anti-CHIKV Total IgG.
# [4] = system: plasma cytokines IL-6 and MCP1; test: Plasma cytokine induction in vivo in mice; set-up: species or system mouse; conditions: WT C57/BL6 mice, 10 mg/kg, i.v.
# Procedure: FIG. 27A is a bar graph illustrating the ability of NA-42 to induce plasma cytokine expression in vivo in mice. […] Expression is represented as pg/ml.
# FIG. 27B is a bar graph illustrating the ability of ND-13 to induce plasma cytokine expression in vivo in mice. […] Expression is represented as pg/ml.
# Plasma cytokine levels were evaluated using a cytokine 20-plex mouse ProcartaPlex kit (Invitrogen) for labeling of multiple cytokines within an individual sample and run on a Luminex 200 instrument.
# Select chemical entities corresponding to the NA and ND chemofamilies were examined as to their ability to induce the expression of various cytokines in vivo. […] Shown at FIG. 27A is a representative example showing NA-42 induction of IL-6 (top panel) and MCP1 (bottom panel).
# [5] = system: J774-Dual cells; test: J774-Dual cytotoxicity; assay type: cell-based, mouse; conditions: Mouse Reporter Cell Line J774; read-out: J774 cytotox CC50
# Summary of the method: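 Orthogonal cross-species screen in mouse J774-Dual cells using 8-point dose-response format. Cytotoxicity measured in-plate by CellTiter-Glo luminescence, giving CC50 alongside EC50 and ISRE:NFκB ratios.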
SMILES,TRIF-dependency of IRF3 induction [1],off-target inflammatory activity in mBMDMs [2],"cytokine induction in mBMDMs (IL6, MCP3, Rantes, TNFa, MCP1, Mip1b, Mip1a, Gro-alpha) vs vehicle [2]",antibody titers to CHIKV (Anti-CHIKV Total IgG) compared to VLP alone ([3]; VLP + 10 mg/kg),plasma IL-6 and MCP1 expression in vivo [4],CC50 [5] [µM],antibody titers to CHIKV (Anti-CHIKV Total IgG) compared to VLP alone ([3]; VLP + 5 mg/kg)
"COc1ccc(C(=O)Nc2cc(-c3nc4cc(C)c(C)cc4o3)ccc2C)cc1[N+](=O)[O-] [ND-13, N-(5-(5,6-dimethylbenzo[d]oxazol-2-yl)-2-methylphenyl)-4-methoxy-3-nitrobenzamide]",TRIF-dependent,minimal off-target inflammatory activity,IRF3 dependent cytokine induction,robustly enhances,robust,,
COc1ccc(C(=O)Nc2cc(-c3nc4ccccc4s3)ccc2C)cc1[N+](=O)[O-] [ND-38],,,,,,> 25,
"CCOc1cccc(COc2ccc(C(=O)Nc3ccc(N4CCN(C(=O)c5cccs5)CC4)cc3)cc2)c1 [NA-42, 4-((3-ethoxybenzyl)oxy)-N-(4-(4-(thiophene-2-carbonyl)piperazin-1-yl)phenyl)benzamide]",TRIF dependent,minimal off-target inflammatory activity,IRF3 dependent cytokine induction,robustly enhances,robust expression,,robustly enhances
"COc1ccc(C(=O)Nc2cc(-c3nc4ccccc4s3)ccc2C)cc1[N+](=O)[O-] [ND52, N-[5-(1,3-benzothiazol-2-yl)-2-methylphenyl]-4-methoxy-3-nitrobenzamide]",,,,,,101,
